{
  "source": "paper PMC7745731",
  "about": "(ACS infectious diseases, 2020)",
  "target": "FadD17 (Rv3506) (Mycobacterium tuberculosis, UniProt O53551)",
  "sequence (O53551 whole entry)": "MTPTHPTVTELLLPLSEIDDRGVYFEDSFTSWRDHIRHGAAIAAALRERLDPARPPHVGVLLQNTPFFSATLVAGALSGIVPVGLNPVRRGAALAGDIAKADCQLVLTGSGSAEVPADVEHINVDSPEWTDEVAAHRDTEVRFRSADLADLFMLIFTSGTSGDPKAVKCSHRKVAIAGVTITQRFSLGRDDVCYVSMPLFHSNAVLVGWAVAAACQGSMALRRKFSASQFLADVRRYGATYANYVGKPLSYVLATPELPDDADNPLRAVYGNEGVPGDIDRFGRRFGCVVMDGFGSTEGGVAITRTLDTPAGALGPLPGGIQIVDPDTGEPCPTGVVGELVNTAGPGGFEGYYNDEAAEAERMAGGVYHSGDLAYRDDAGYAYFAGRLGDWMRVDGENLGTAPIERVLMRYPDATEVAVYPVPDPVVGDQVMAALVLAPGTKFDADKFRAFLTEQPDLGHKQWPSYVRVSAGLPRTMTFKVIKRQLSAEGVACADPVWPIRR",
  "data": [
    {"compound": "C[C@H](/C=C/C(=O)O)[C@H]1CC[C@H]2[C@@H]3CCC4=CC(=O)CC[C@]4(C)[C@H]3CC[C@]12C", "note": "[3-OCDO-acid]", "values": [
      {"measurement": "preparative CoA ligation, HPLC", "value": "3-OCDO-CoA was then synthesized enzymatically from the 3-OCDO-acid using the steroid-CoA ligase FadD17"}
    ]}
  ]
}
